Experimental data as given in patent US8685976B2, “Cell adhesion promoting agent and method of promoting cell adhesion” (Kyoto University, priority 2008, dated 2014).

Tests used:
HepG2 cells [1] = test: Cell growth assay (WST-8), HepG2; assay type: cell-based
Protocol: In (A) and (B), the cell growth was determined at 24, 48, and 72 hours after the addition of adhesamine (1) (6 μM). The cell growth in the presence of 1% (v/v) DMSO was assigned a value of 100%. The data shown are means±SD for a minimum of three experiments. (C) to (F) show the rearrangement of actin filaments in HepG2 and Jurkat cells in the presence of adhesamine (6 μM). Brightfield images (C and D) and confocal images (E and F) are shown. HepG2 (C and E) or Jurkat (D and F) cells were plated for 5 hours or 3 hours, respectively, and actin cytoskeletal was visualized using rhodamine-labeled phalloidin.
1 μL DMSO solution of adhesamine (1) was added to 96-well plate at a concentration of 600 μM. […] After incubation for indicated time, the cell viability was measured using Cell Counting Kit-8 (Dojindo Molecular Technologies, Inc., Gaithersburg, Md.), which contains a tetrazolium salt (WST-8) that produces a water-soluble formazan dye by NADH dehydrogenases in living cells. […] The optical density (OD) of the solution was read by a microplate reader, using a test wavelength at 450 nm and a reference wavelength at 650 nm. […] Each assay was conducted in triplicate, and the means and standard derivations were calculated for a minimum of three independent experiments.

Jurkat cells [2] = test: Cell adhesion assay by addition, Jurkat cells; assay type: cell-based, human
Protocol: 1 μL each of an aqueous solution of adhesamine (1), Type I collagen, poly-L-lysine hydrochloride, poly-L-ornithine hydrobromide, and fibronectin at a concentration of 50, 500, and 5000 μg/ml, was added to 96-well plate. 100 μL of HepG2 suspension (4×10^5 cells/mL) was added to each well. After 3-hour incubation at 37° C., non-adherent cells were removed by washing each well with PBS three times, and the attached cells were counted with a Neubauer counting chamber (Digital Bio). For Jurkat cells, 100 μL of cell suspension was added to each well at a density of 1×10^6 cells/ml. After 5-hour incubation at 37° C., non-adhered cells were removed by washing each well with PBS twice, and the attached cells were counted with a Neubauer counting chamber (Digital Bio). To calculate adhesion rates, firstly seeded cell numbers were assigned a value of 100%. As control tests, the same tests were conducted using wells supplied with only 1 μL of DMSO. Each assay was conducted in triplicate, and the means and standard derivations were calculated.
The comparison between adhesamine and its derivatives regarding cell adhesion promotion activity was conducted using Jurkat cells by way of reagent addition assay. 1 μL each of DMSO solutions of the compounds having concentrations of 60, 600, and 6000 μM were added to 96-well plates. The wells were supplied with 100 μL each of Jurkat cell suspensions (1×10^6 cells/mL). After 5-hour incubation at 37° C., non-adhered cells were removed by washing each well with PBS twice, and the attached cells were counted with a Neubauer counting chamber (Digital Bio). To calculate adhesion rates, firstly seeded cell numbers were assigned a value of 100%. As control tests, the same tests were conducted using well plates supplied with only 1 μL of DMSO. Each assay was conducted in triplicate, and the means and standard derivations were calculated.
However, since HepG2 cells have an intrinsic propensity to adhere to plastic tissue-culture plates, a test was conducted to determine whether the same effect was also obtained in the Jurkat cell line and human T-lymphocytes that are floating cells. Remarkably, 30% and 60% of the Jurkat cells attached to a culture plate in the presence of 6 and 60 μM of adhesamine, respectively (FIG. 1D). Removal of adhesamine by washing the plate twice with PBS detached the cells. 93% of Jurkat cells were released from the surface of a culture plate 24 hour after washing (FIG. 2). […] Simply adding adhesamine to the medium promoted adhesion of Jurkat cells onto culture plates, but not to each other.

HepG2 cells [3] = test: Cell adhesion assay by addition, HepG2 cells; assay type: cell-based; settings: 0.6-60 μM in medium, 3-hour incubation, reattachment after trypsin treatment
Protocol: HepG2 cells were cultured in MEM supplemented with 10% fetal bovine serum (FBS) and 1% penicillin/streptomycin at 37° C. under 5% CO2. Jurkat cells were cultured in RPMI-1640 supplemented with 10% fetal bovine serum (FBS) and 1% penicillin/streptomycin at 37° C. under 5% CO2. For the screening of small molecule compounds, 100 μL of HepG2 suspension (2×10^5 cells/mL) was plated into 96-well plates supplied with each compound at a concentration of 20 μg/mL. After 3, 16, and 24 hours, the cells were subjected to microscopic observation to examine phenotypic changes. CHO K1 cells and CHO mutant cell lines were maintained in Ham's F-12 medium supplemented with 7.5% fetal bovine serum.
1 μL each of an aqueous solution of adhesamine (1), Type I collagen, poly-L-lysine hydrochloride, poly-L-ornithine hydrobromide, and fibronectin at a concentration of 50, 500, and 5000 μg/ml, was added to 96-well plate. […] After 3-hour incubation at 37° C., non-adherent cells were removed by washing each well with PBS three times, and the attached cells were counted with a Neubauer counting chamber (Digital Bio). […] […] Each assay was conducted in triplicate, and the means and standard derivations were calculated. […]

Jurkat cells [4] = test: Microinjection of Alexa Fluor 594; assay type: cell-based, human; settings: 5 μg/mL reagent
Protocol: The concentration of the reagents used was 5 μg/mL.
The solutions of adhesamine (1), Type I collagen, poly-L-lysine hydrochloride, and fibronectin were prepared by diluting with PBS containing 1% (v/v) DMSO. 10 μL of each solution (1 mg/mL) was added to glass bottom culture dishes (35 mm uncoated dish). 2 mL of cell suspension in a culture medium was added to each well at a density of 2×10^5 cells/mL. After 14-hour incubation at 37° C., Alexa Fluor 594 (Molecular Probes, USA) at a concentration of 5 mg/mL was injected into Jurkat cells by using a CI-2000 automated cell injection system (Fujitsu, Japan). Success rates of the microinjection were evaluated by direct observation of the fluorescent cells through a fluorescent-microscopic window of the injection system. The data shown are means±SD for a minimum of three experiments. 20 cells were injected in each experiment.

## CSc1nc(Cl)c(C=O)c(N2CC[N+]3(CC2)CC[N+]2(CCN(c4nc(SC)nc(Cl)c4C=O)CC2)CC3)n1 [adhesamine]
HepG2 cells [1]; HepG2, 6 μM
  cytotoxicity: no obvious cytotoxicity
HepG2 cells [1]; HepG2, 6 μM, 24, 48, 72 hours, vs 1% DMSO
  growth of the cells: slightly enhanced
Jurkat cells [2]; 6 μM in medium
  Jurkat cells attached to a culture plate: 30%
Jurkat cells [2]; 60 μM in medium
  Jurkat cells attached to a culture plate: 60%
Jurkat cells [2]; FIG. 12
  cell attachment on addition to the medium, compared with coating reagents: significantly greater attachment than addition of the other coating reagents
Jurkat cells [2]; added to the medium
  cell-cell adhesion: did not induce
HepG2 cells [3]
  enhancement of the adhesion of HepG2 cells: up to twofold
Jurkat cells [4]
  effect on microinjection success: more than type I collagen, poly-L-lysine hydrochloride, and fibronectin
  microinjection success rates: ≤ 80%
